Measurements from patent publication US9556217B2, “Amphiphilic compounds” (WISCONSIN ALUMNI RESEARCH FOUNDATION, priority 2012, dated 2017).

How the values were obtained:
wild type β2AR (β2AR WT) = target: T1, wild type β2AR (β2AR WT) (Homo sapiens, UniProt P07550); test: β2AR WT activity after extraction ([3H]-dihydroalprenolol binding); type: biochemical; conditions: for β2AR WT initial activity: extracted with 1 wt % or 2 wt % amphiphile; for β2AR WT activity over 72 hours: solubilized samples stored at 4° C.
T1 construct: made in house; host or cells: Sf9 insect cells (baculovirus); lysed cells and membranes extracted directly with amphiphile
Protocol: In the examples discussed above, conventional detergents such as DDM were used to extract IMPs from the membrane, and then in most cases the solution of detergent-solubilized protein was diluted with amphiphile-containing solutions to evaluate the new agents. With this approach it is possible that the small amount of residual conventional detergent could affect protein stability. To exclude this possibility, GLC-3 and GDN were used to extract wild type β2AR (β2AR WT) (Kobilka, Trends in Pharmacological Sciences 2011, 32, 213-218) from the membrane. Receptor activity was measured via a binding assay involving the antagonist [^3H]-dihydroalprenolol. […] GDN is therefore highly suitable for GPCR extraction.
A gene encoding amino-terminally FLAG epitope tagged β2AR was expressed in Sf9 cells by baculovirus, with no ligand present during culture. Cells were infected at a density of 4×10^6 cells/mL and then cultured for 48 hours prior to harvesting by centrifugation. Cells were resuspended and lysed by osmotic shock with a low ionic strength buffer (20 mM Tris pH 7.5, 1 mM EDTA). The lysed cells were aliquoted 35 mg per aliquot, then frozen. For extraction tests, 300 μL of solubilization buffer (20 mM HEPES pH 7.5, 100 mM NaCl) containing each amphiphile was added to each aliquot, which was then homogenized by pipet followed by grinding with a glass dounce tissue homogenizer. After two-hour incubation at 4° C., samples were centrifuged at maximum speed in a tabletop microcentrifuge to pellet insoluble material. Supernatant was removed and assayed for protein concentration by DC protein assay (Bio-Rad).
The amount of functional receptor was quantified by incubation for 1 hour with 10 nM 3H dihydroalprenolol. Samples were then separated by gel filtration over G-50 resin and radioactivity was quantified by liquid scintillation. Nonspecific binding was measured in the presence of 10 μM alprenolol. Assays were performed in triplicate at time points indicated. G-50 filtration was performed in buffer containing 20 mM HEPES pH 7.5, 100 mM NaCl, 10-fold CMC of the detergent tested. All binding assays were performed with ice cold buffers.

[1] = target: T2, CMP-Sia fusion protein bearing green fluorescent protein (GFP) (Mus musculus, UniProt Q61420); test: CMP-Sia-GFP fusion solubilization (fluorescence); conditions: 1 hr at 4° C., total fluorescence
T2 construct: made in house; host or cells: Saccharomyces cerevisiae FGY217
Protocol: The favorable MelB extraction performance of GDN led to the examination of this amphiphile for extraction of other IMPs. […] DDM and GDN were used to extract a CMP-Sia fusion protein bearing green fluorescent protein (GFP) at the C-terminus, after expression in Saccharomyces cerevisiae; the amount of solubilized protein was estimated by total fluorescence. GDN (2 wt %), DDM (1 wt %) and OG (1 wt %) gave ˜70%, ˜80% and ˜50% extraction yields, respectively.
The procedure was performed according to the protocol reported by Chae and coworkers (Nat. Methods 2010, 7, 1003-1008).
CMP-Sia was expressed as a fusion protein with a C-terminal GFP in FGY217 Saccharomyces cerevisiae cells. Cell lysis was conducted by using a cell disrupter (Constant Systems) and the protein samples were subjected to centrifugation at 15,000 g for 10 mins to remove unbroken cells and debris. Subsequently, the membranes were harvested by ultracentrifugation at 150,000 g for 45 min. The membranes were resuspended in 50 mM Tris-HCl (pH 7.6), 1 mM EDTA, 0.6 M sorbitol and the protein concentration was estimated using a BCA kit (Pierce). The membranes were incubated with OG or DDM at 1.0%, or GDN at 2.0% for 1 hr at 4° C. A fluorescence value was measured for each sample before and after ultracentrifugation at 150,000 g for 1 h. The solubilization efficiency was calculated via the fluorescence measurements of the soluble supernatant/the total sample.

T1 sequence (P07550 whole entry): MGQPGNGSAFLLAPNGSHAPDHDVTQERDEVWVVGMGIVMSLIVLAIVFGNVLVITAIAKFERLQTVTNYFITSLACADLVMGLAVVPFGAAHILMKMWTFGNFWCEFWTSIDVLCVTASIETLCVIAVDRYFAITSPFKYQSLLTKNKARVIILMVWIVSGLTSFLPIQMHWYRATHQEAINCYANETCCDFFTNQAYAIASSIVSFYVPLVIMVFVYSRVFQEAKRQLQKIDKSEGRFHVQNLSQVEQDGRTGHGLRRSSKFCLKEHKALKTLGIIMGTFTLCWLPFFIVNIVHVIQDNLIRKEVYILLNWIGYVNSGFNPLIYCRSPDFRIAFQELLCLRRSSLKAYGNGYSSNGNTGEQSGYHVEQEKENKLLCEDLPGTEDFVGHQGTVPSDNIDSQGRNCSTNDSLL

| SMILES | β2AR WT initial activity (wild type β2AR (β2AR WT); [3H]-dihydroalprenolol binding) | β2AR WT activity over 72 hours (wild type β2AR (β2AR WT)) | CMP-Sia-GFP extraction yield ([1]; 1 wt %) [%] | β2AR WT initial activity, increase relative to DDM (wild type β2AR (β2AR WT); [3H]-dihydroalprenolol binding) [fold] | CMP-Sia-GFP extraction yield ([1]; 2 wt %) [%] |
| --- | --- | --- | --- | --- | --- |
| CCCCCCCCCCCCO[C@@H]1O[C@H](CO)[C@@H](O[C@H]2O[C@H](CO)[C@@H](O)[C@H](O)[C@H]2O)[C@H](O)[C@H]1O [DDM, dodecyl-β-D-maltoside, reference compound] | low initial activity | rapidly decomposed | ~80 | – | – |
| C[C@@H]1CC[C@@]2(OC1)O[C@H]1C[C@H]3[C@@H]4CC=C5C[C@@H](OCCC(CO[C@@H]6OC(CO)[C@@H](O[C@H]7OC(CO)[C@@H](O)C(O)C7O)C(O)C6O)CO[C@@H]6OC(CO)[C@@H](O[C@H]7OC(CO)[C@@H](O)C(O)C7O)C(O)C6O)CC[C@]5(C)[C@H]4CC[C@]3(C)[C@@H]1[C@@H]2C (stereo partly shown) [GDN, glyco-diosgenin] | high initial activity | did not vary over 72 hours | – | > 3 | ~70 |
